Experiment [1] relates to blood coagulation function. The experiment in a line: TT in rabbits, single intravenous administration. It is filed as in vivo, rabbit. The method, then: (§1) 1. Grouping and administration: 48 Rabbits were randomly divided into 6 groups, 8 rabbits per group. 1) Sham operation group (NS): Intravenous injection of the same volume of physiological saline; 2) positive control bivalirudin group (6 mg/kg); 3) positive control enoxaparin group (200 U/kg); 4) Low dose group of polypeptide 2 (3.0 mg/kg); 5) Medium dose group of polypeptide 2 (6.0 mg/kg); 6) High dose group of polypeptide 2 (12.0 mg/kg). Polypeptide 2 was administered by single intravenous administration. According to the body weight in kilograms of the rabbits, the sample was dissolved in 2 mL of physiological saline for single bolus injection. The sham operation group was administered with the same volume of physiological saline.
3.2 Determination of blood coagulation function: Blood samples were taken and the blood function (PT, TT, APTT) was determined at 0 min before administration, at points of 5 min and 15 min after administration, using a platelet-aggregation coagulation factor analyzer. Blood samples were centrifuged at 3510 rpm for 8 min to obtain platelet poor plasma (PPP). Reagent reconstruction and preservation were performed according to the operation requirements of the kit. Immediately after each blood sample was placed into a test cup and then added with PT. TT and APTT reagents, the test was started. After the test was completed, results were recorded.

The subject of experiment [2] is femoral arterial and venous bypass thrombosis. In words: Femoral arterial and venous bypass thrombosis in rabbits, single intravenous administration. The class given is in vivo, rabbit. Particulars: 15 min. As for the experimental part:
as §1
2.1 Surgery preparation of rabbits: Rabbit were sent to the laboratory for accommodation for one day, and then screened at first. Blood samples were taken from arteries within ears, which were subjected to blood routine analysis and APTT examinations, and the rabbits with a normal blood hemogram and APTT between 16 and 28 seconds were selected for experiments. The rabbits to be tested were fasted with free access to water in the night before the experiment. The rabbits were anesthetized with intravenous injection of 3% sodium pentobarbital solution at 1 ml/kg, fixed in the supine position, and then, the common carotid artery at one side, external jugular vein, femoral artery at one side, femoral vein, and forelimb vein at one side were isolated. The forelimb vein was subjected to intubation for administration; the left femoral vein was subjected to intubation for blood collection to determine the platelet aggregation rate: the femoral artery was used for the establishment of an arterial thrombosis model; the common carotid artery and external jugular vein were used for the establishment of an arterial and venous bypass thrombosis model.
2.2 Arterial and venous bypass thrombosis (AVST) model: An arterial and venous shunt consists of two casings, of which an outer casing has a length of about 8 cm and an inner diameter of 7.9 mm, the inner casing has a length of about 2.5 cm and an inner diameter of 4.8 mm. The polyethylene tube was charged with a silk thread about 8 cm long and filled with […] heparin solution, of which one end was inserted into the left femoral artery and the other end was inserted into the right femoral vein. After administration for 30 seconds, the blood flow was released, which flowed from the left artery to the polyethylene tube and returned to the right vein. After 15 minutes, the blood flow was interrupted, the silk thread was quickly removed and placed on an aluminum foil (size: 2.5 cm×2.5 cm), measured for its wet weight, and kept overnight at room temperature and weighed for its dry weight.
The femoral arteries in the […] and both sides in the rabbits were isolated and stabilized for 10 min before the administration was started. An AT model was established by covering the femoral artery with 50% FeCl3 filter paper while administration, and the filter paper was removed after covering for 15 minutes. An AVST model was established and it was taken out after […]. Observation was continued for 120 min after administration until the experiment was completed.
3.4 Thrombus weight: After the experiment was completed, the segment of the blood vessels in which there had been thrombus formation was cut off, weighed for the wet weight, and then kept overnight at room temperature and weighed for the dry weight. The thrombosis inhibitory rate was calculated with a calculation equation as follows: […]

For experiment [3], the system named is thrombin-induced pulmonary embolism. The experiment in a line: Thrombin-induced pulmonary embolism in mice. Particulars: thrombin 1500 u/kg; for Mortality rate: within 15 min. It is filed as in vivo, mouse. The method, then:
Mice were randomly divided into 7 groups with 10 mice per group, in which group 1 was physiological saline group, group 2 was model control group, group 3 was positive control group of enoxaparin 0.5 mg/kg, group 4 was positive control group of bivalirudin 8 mg/kg, group 5 was low dose group of polypeptide 2 at 2.5 mg/kg, group 6 was medium dose group of polypeptide 2 at 5.0 mg/kg, and group 7 was high dose group of polypeptide 2 at 10.0 mg/kg. Except that physiological saline group and model control group were subjected to tail intravenous injection of 200 μl physiological saline, the other groups were given according to the doses, respectively. After 2 min, the mice in physiological saline group were administered with 100 μl physiological saline through tail intravenous injection and the other groups were each administered with 100 μl thrombin based on 1500 u/kg (80% to 90% of the lethal dose) through tail intravenous injection. The mice were observed after the administration for their death within 15 min.
(1) Recording mortality rate: the death status of mice with acute pulmonary embolism mice within 15 min was recorded and the survival time was recorded, to calculate the mortality rate;
(2) Determining lung coefficient: immediately after death, the bronchial and adipose tissues were dissected away from the lung tissue, and the lung tissue was washed with distilled water, and weighed for the lung weight after soaking up the water on the surface of the lung with a filter paper. The lung was taken out and weighed, to calculate the lung coefficient. Lung coefficient=Lung weight/Body weight×100%;
The lung was immediately dissected and taken out and weighed to determine the lung coefficient.

[4] abbreviates: single iv 6.0 mg/kg, Before administration.

Marks after values point to notes of the source that are not given here.

In the case of “Bivalirudin: Bivalirudin for Injection, Xi'an Xintong Pharmaceutical Research Co., Ltd.; positive control thrombin inhibitor”, the TT was more than 180 s in experiment [1] (single iv 6.0 mg/kg, Administration for 5 min); more than 180 s in experiment [1] (single iv 6.0 mg/kg, Administration for 15 min); 22.4 ± 5.2 S in experiment [1] (setting [4]). The Thrombus dry weight in experiment [2] (single iv 6.0 mg/kg) is reported as 20.8 ± 6.3 mg. The substance further registered a Thrombus inhibitory rate in experiment [2] (single iv 6.0 mg/kg) of 11.86%. Further, in experiment [3] (tail iv 8.0 mg/kg), the Lung coefficient amounted to 0.99 ± 0.07 g/100 g. Also, in experiment [3] (tail iv 8.0 mg/kg), the Number of platelets was 411.89 ± 175.52 ×10^9. The Mortality rate in experiment [3] (tail iv 8.0 mg/kg, 8 mg/kg) is listed as 10**^## %; in experiment [3] (tail iv 8.0 mg/kg, listed as bivalirudin, 8 mg/kg), 10%.

With “D-Phe Pro Arg Pro Gly Gly Gly Gly Asn Gly Asp Phe Glu Glu Ile Pro Glu Glu Tyr Leu Glu Ala Ala Ala Lys Cys Har Gly Asp Trp Pro Cys [Polypeptide 2]”, the TT was 21.0 ± 2.6 S in experiment [1] (single iv 3.0 mg/kg, Before administration); 22.3 ± 1.9 S in experiment [1] (setting [4]); 21.8 ± 6.4 S in experiment [1] (single iv 12.0 mg/kg, Before administration). Besides, the Thrombus dry weight in experiment [2] (single iv 3.0 mg/kg) worked out at 20.2 ± 4.3 mg; in experiment [2] (single iv 6.0 mg/kg) it was 13.5 ± 5.3 mg; in experiment [2] (single iv 12.0 mg/kg), 10.6 ± 6.8 mg. For the same substance, the Thrombus inhibitory rate worked out at 14.48% in experiment [2] (single iv 3.0 mg/kg), 42.80% in experiment [2] (single iv 6.0 mg/kg) and 55.24% in experiment [2] (single iv 12.0 mg/kg). The Lung coefficient in experiment [3] (tail iv 2.5 mg/kg) was 0.94 ± 0.16 g/100 g; in experiment [3] (tail iv 5.0 mg/kg), 1.08 ± 0.27 g/100 g; in experiment [3] (tail iv 10.0 mg/kg), 0.83 ± 0.14 g/100 g. The Number of platelets in experiment [3] (tail iv 2.5 mg/kg) was 165.33 ± 20.2 ×10^9; in experiment [3] (tail iv 5.0 mg/kg), 207.83 ± 33.09 ×10^9; in experiment [3] (tail iv 10.0 mg/kg), 529.57 ± 104.28 ×10^9. In addition, the Mortality rate was 60 ^ % in experiment [3] (tail iv 2.5 mg/kg, 2.5 mg/kg); 60% in experiment [3] (tail iv 2.5 mg/kg, listed as polypeptide 2, 2.5 mg/kg); 30**^# % in experiment [3] (tail iv 5.0 mg/kg, 5 mg/kg); 30% in experiment [3] (tail iv 5.0 mg/kg, listed as polypeptide 2, 5 mg/kg); 10**^# % in experiment [3] (tail iv 10.0 mg/kg, 10 mg/kg); 10% in experiment [3] (tail iv 10.0 mg/kg, listed as polypeptide 2, 10 mg/kg).

Take Enoxaparin: the TT in experiment [1] (single iv 200 (U/kg), Administration for 5 min) is more than 180 s; in experiment [1] (single iv 200 (U/kg), Administration for 15 min) it was more than 180 s; in experiment [1] (single iv 200 (U/kg), Before administration) it was 20.7 ± 4.2 S. The Thrombus dry weight in experiment [2] (single iv 200 U (U/kg)) is on record as 17.3 ± 6.5 mg. The substance also registered a Thrombus inhibitory rate in experiment [2] (single iv 200 U (U/kg)) of 26.88%. Also, the Mortality rate in experiment [3] (tail iv 0.5 mg/kg) is reported as 10%. In addition, the Lung coefficient in experiment [3] (tail iv 250 IU/kg) turned out to be 1.02 ± 0.33 g/100 g.

The values are drawn from patent US11643439B2, “Multi-target compound with anticoagulation and antiplatelet activity, preparation method therefor, and use thereof” (SHAANXI MICOT TECHNOLOGY LIMITED COMPANY, priority 2015, dated 2023).
